Molecular target: T1, human M1 receptor (hCHRM1) (Homo sapiens, UniProt P11229)
T1 construct: expressed in transfected cells; host or cells: CHO-K1
T1 sequence (P11229 1-460): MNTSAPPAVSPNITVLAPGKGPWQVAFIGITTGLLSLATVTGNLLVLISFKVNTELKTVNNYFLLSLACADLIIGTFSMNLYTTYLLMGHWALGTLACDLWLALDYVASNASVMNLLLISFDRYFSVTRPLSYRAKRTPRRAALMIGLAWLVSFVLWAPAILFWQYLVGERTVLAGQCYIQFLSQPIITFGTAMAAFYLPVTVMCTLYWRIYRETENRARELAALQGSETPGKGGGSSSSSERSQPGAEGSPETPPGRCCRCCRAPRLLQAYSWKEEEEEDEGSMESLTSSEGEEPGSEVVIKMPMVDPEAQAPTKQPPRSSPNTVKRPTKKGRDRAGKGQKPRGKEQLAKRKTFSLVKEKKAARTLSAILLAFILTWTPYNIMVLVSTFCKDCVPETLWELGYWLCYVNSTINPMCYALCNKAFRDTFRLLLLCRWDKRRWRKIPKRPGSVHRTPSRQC
Assay: Measurement of M1 receptor positive allosteric modulator (M1PAM) activity, calcium fluorescence (FLIPRtetra) in CHO-K1 cells in the presence of acetylcholine at EC20
Assay type: cell-based
Conditions: in the presence of acetylcholine at EC20 (final 0.6 nM), CHO-K1 cells expressing hCHRM1; for EC50: inflection point of M1PAM activity, read-out: IP value; for activity (%) at 10 μM: test compound 10 μM
How it was run: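 CHO-K1 cells expressing human M1 were loaded with Fluo-4 AM, and compound was added with acetylcholine at EC20 (final 0.6 nM). Calcium fluorescence was read on FLIPRtetra for 1 min. Activity was normalized to 1 μM acetylcholine (100%) and DMSO (0%), and the curve inflection point was reported as IP.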

SMILES	EC50	activity (%) at 10 μM
COCc1ccc(F)c(Oc2nccc3c2C(=O)N(Cc2ccc(-c4cnn(C)c4)cc2)C3)c1 [Example 302, 4-(2-fluoro-5-(methoxymethyl)phenoxy)-2-(4-(1-methyl-1H-pyrazol-4-yl)benzyl)-1,2-dihydro-3H-pyrrolo[3,4-c]pyridin-3-one]	32 nM	92%
CCn1cc(-c2ccc(CN3Cc4ncnc(OC5CCC5)c4C3=O)cc2)cn1 [Example 324, 4-(cyclobutyloxy)-6-(4-(1-ethyl-1H-pyrazol-4-yl)benzyl)-6,7-dihydro-5H-pyrrolo[3,4-d]pyrimidin-5-one]	19 nM	99%
Cc1cc(-c2ccc(CN3Cc4ccnc(O[C@@H]5CCC[C@H]5O)c4C3=O)cc2)ccn1 (single isomer, unassigned) [Example 242, 4-((trans-2-hydroxycyclopentyl)oxy)-2-(4-(2-methylpyridin-4-yl)benzyl)-1,2-dihydro-3H-pyrrolo[3,4-c]pyridin-3-one]	8.2 nM	110%
COc1cccc(F)c1Oc1nccc2c1C(=O)N(Cc1ccc(-c3cnn(C)c3)cc1)C2 [Example 360, 4-(2-fluoro-6-methoxyphenoxy)-2-(4-(1-methyl-1H-pyrazol-4-yl)benzyl)-1,2-dihydro-3H-pyrrolo[3,4-c]pyridin-3-one]	72 nM	105%
Cc1cc(-c2ccc(CN3Cc4ccnc(Oc5ccc(C(F)(F)F)cc5C)c4C3=O)cc2)cnn1 [Example 407, 2-(4-(6-methylpyridazin-4-yl)benzyl)-4-(2-methyl-4-(trifluoromethyl)phenoxy)-1,2-dihydro-3H-pyrrolo[3,4-c]pyridin-3-one]	74 nM	89%
Cn1ccc(-c2ccc(CN3Cc4ccnc(Oc5c(F)cc(C#N)cc5F)c4C3=O)cc2)n1 [Example 375, 3,5-difluoro-4-((2-(4-(1-methyl-1H-pyrazol-3-yl)benzyl)-3-oxo-2,3-dihydro-1H-pyrrolo[3,4-c]pyridin-4-yl)oxy)benzonitrile]	10 nM	99%
Cc1ccc(Oc2nccc3c2C(=O)N(Cc2ccc(C(N)=O)c(F)c2)C3)c(F)c1 [Example 440, 2-fluoro-4-((4-(2-fluoro-4-methylphenoxy)-3-oxo-1,3-dihydro-2H-pyrrolo[3,4-c]pyridin-2-yl)methyl)benzamide]	70 nM	100%
Cn1cc(-c2ccc(CN3Cc4ccnc(OCc5ccccc5F)c4C3=O)c(F)c2)nn1 [Example 327, 4-((2-fluorobenzyl)oxy)-2-(2-fluoro-4-(1-methyl-1H-1,2,3-triazol-4-yl)benzyl)-1,2-dihydro-3H-pyrrolo[3,4-c]pyridin-3-one]	6.5 nM	98%
NC(=O)c1ccc(CN2Cc3ccnc(Oc4ccc(C(F)(F)F)cc4F)c3C2=O)cc1 [Example 422, 4-((4-(2-fluoro-4-(trifluoromethyl)phenoxy)-3-oxo-1,3-dihydro-2H-pyrrolo[3,4-c]pyridin-2-yl)methyl)benzamide]	12 nM	107%
Cc1cn(-c2ccc(CN3Cc4ccnc(Oc5ccc(C(F)(F)F)cc5F)c4C3=O)cc2)cn1 [Example 418, 4-(2-fluoro-4-(trifluoromethyl)phenoxy)-2-(4-(4-methyl-1H-imidazol-1-yl)benzyl)-1,2-dihydro-3H-pyrrolo[3,4-c]pyridin-3-one]	9.1 nM	95%
CCc1ccc(Oc2nccc3c2C(=O)N(Cc2ccc(C(=O)NC)c(F)c2)C3)c(F)c1 [Example 443]	31 nM	101%
Cn1cc(-c2ccc(CN3Cc4cccc(Oc5c(F)cc(C#N)cc5F)c4C3=O)nc2)cn1 [Example 377, 3,5-difluoro-4-((2-((5-(1-methyl-1H-pyrazol-4-yl)pyridin-2-yl)methyl)-3-oxo-2,3-dihydro-1H-isoindol-4-yl)oxy)benzonitrile]	7.6 nM	83%
Cn1cc(-c2ccc(CN3Cc4cccc(Oc5c(F)cccc5C#N)c4C3=O)c(Cl)c2)cn1 [Example 68, 2-((2-(2-chloro-4-(1-methyl-1H-pyrazol-4-yl)benzyl)-3-oxo-2,3-dihydro-1H-isoindol-4-yl)oxy)-3-fluorobenzonitrile]	72 nM	109%
Cn1cc(-c2ccc(CN3Cc4ccnc(Oc5ccc(C(C)(C)C#N)cc5F)c4C3=O)cc2)cn1 [Example 409, 2-(3-fluoro-4-((2-(4-(1-methyl-1H-pyrazol-4-yl)benzyl)-3-oxo-2,3-dihydro-1H-pyrrolo[3,4-c]pyridin-4-yl)oxy)phenyl)-2-methylpropanenitrile]	3.4 nM	96%
CNC(=O)c1ccc(CN2Cc3ccnc(Oc4ccc(C5CC5)cc4F)c3C2=O)cn1 [Example 454, 5-((4-(4-cyclopropyl-2-fluorophenoxy)-3-oxo-1,3-dihydro-2H-pyrrolo[3,4-c]pyridin-2-yl)methyl)-N-methylpyridine-2-carboxamide]	30 nM	86%
O=C1c2c(ccnc2O[C@H]2CCCC[C@@H]2O)CN1Cc1ccc(Cl)s1 (relative stereo) [Example 401, 2-((5-chloro-2-thienyl)methyl)-4-((trans-2-hydroxycyclohexyl)oxy)-1,2-dihydro-3H-pyrrolo[3,4-c]pyridin-3-one]	48 nM	92%
CCC(CO)Oc1nccc2c1C(=O)N(Cc1ccc(-c3cn(C)nc3C)cc1)C2 (single isomer, unassigned) [Example 274, 2-(4-(1,3-dimethyl-1H-pyrazol-4-yl)benzyl)-4-((l-hydroxybutan-2-yl)oxy)-1,2-dihydro-3H-pyrrolo[3,4-c]pyridin-3-one]	12 nM	102%
CCc1ccc(Oc2nccc3c2C(=O)N(Cc2ccc(C(N)=O)cc2)C3)c(F)c1 [Example 449, 4-((4-(4-ethyl-2-fluorophenoxy)-3-oxo-1,3-dihydro-2H-pyrrolo[3,4-c]pyridin-2-yl)methyl)benzamide]	9.3 nM	99%
CCNC(=O)c1ccc(CN2Cc3ccnc(Oc4ccc(C)cc4F)c3C2=O)cc1 [Example 434, N-ethyl-4-((4-(2-fluoro-4-methylphenoxy)-3-oxo-1,3-dihydro-2H-pyrrolo[3,4-c]pyridin-2-yl)methyl)benzamide]	26 nM	95%
Cc1cc(-c2ccc(CN3Cc4ccnc(Oc5ccc(C(F)F)cc5F)c4C3=O)cc2)ccn1 [Example 379, 4-(4-(difluoromethyl)-2-fluorophenoxy)-2-(4-(2-methylpyridin-4-yl)benzyl)-1,2-dihydro-3H-pyrrolo[3,4-c]pyridin-3-one]	14 nM	90%
O=C1c2c(cccc2O[C@@H]2COCC[C@H]2O)CN1Cc1ccc(Br)cc1 (single isomer, unassigned) [Example 271, 1,5-anhydro-2-O-(2-(4-bromobenzyl)-3-oxo-2,3-dihydro-1H-isoindol-4-yl)-4-deoxy-threo-pentitol]	130 nM	97%
Cn1cc(-c2ccc(CN3Cc4cccc(Oc5cccnc5C#N)c4C3=O)cc2)cn1 [Example 20, 3-((2-(4-(1-methyl-1H-pyrazol-4-yl)benzyl)-3-oxo-2,3-dihydro-1H-isoindol-4-yl)oxy)pyridine-2-carbonitrile]	80 nM	100%
O=C1c2c(ccnc2OCC2CCCO2)CN1Cc1ccc(-c2ccnc(C(F)(F)F)c2)cc1 (stereo not drawn) [Example 325, 4-((tetrahydrofuran-2-yl)methoxy)-2-(4-(2-(trifluoromethyl)pyridin-4-yl)benzyl)-1,2-dihydro-3H-pyrrolo[3,4-c]pyridin-3-one]	47 nM	116%
CCCc1ccc(Oc2nccc3c2C(=O)N(Cc2ccc(C(=O)NC)cc2)C3)c(F)c1 [Example 451, 4-((4-(2-fluoro-4-propylphenoxy)-3-oxo-1,3-dihydro-2H-pyrrolo[3,4-c]pyridin-2-yl)methyl)-N-methylbenzamide]	11 nM	105%
O=C1c2c(O[C@@H]3CCCC[C@H]3O)ccc(F)c2CN1Cc1ccc(-n2cccn2)cc1 (relative stereo) [Example 223, 4-fluoro-7-((trans-2-hydroxycyclohexyl)oxy)-2-(4-(1H-pyrazol-1-yl)benzyl)isoindolin-1-one]	19 nM	103%
CCNC(=O)c1ccc(CN2Cc3ccnc(Oc4ccc(C(F)(F)F)cc4F)c3C2=O)cc1 [Example 432, N-ethyl-4-((4-(2-fluoro-4-(trifluoromethyl)phenoxy)-3-oxo-1,3-dihydro-2H-pyrrolo[3,4-c]pyridin-2-yl)methyl)benzamide]	52 nM	92%
Cc1cc(-c2ccc(CN3Cc4ccnc(Oc5ccc(C#N)cc5F)c4C3=O)cc2)ccn1 [Example 368, 3-fluoro-4-((2-(4-(2-methylpyridin-4-yl)benzyl)-3-oxo-2,3-dihydro-1H-pyrrolo[3,4-c]pyridin-4-yl)oxy)benzonitrile]	10 nM	99%

Reference: patent US9777005B2 (Takeda Pharmaceutical Company Limited, priority 2012, dated 2017)
